Measurements taken from paper PMC4388757, “In Vitro and In Vivo Metabolism and Inhibitory Activities of Vasicine, a Potent Acetylcholinesterase and Butyrylcholinesterase Inhibitor” (PLoS ONE, 2015).
Structures can show the parent of a compound that is named as a salt. Where two headings read alike, the source gives them in different places.

What was measured:
[1] = molecular target: T1, AChE from Electrophorus electricus (Electrophorus electricus, UniProt O42275); assay: biochemical; format: biochemical; conditions: for IC50: means ± SD of three replicate determinations; for fold reduction of AChE inhibitory activity: VAO vs VAS, VAO-3-S vs VAS-3-S, VAS-3-G vs VAS
T1 construct: purchased Sigma Aldrich Co. (St. Louis, MO, USA)
Text: VAS and VAO were isolated from P. harmala in our laboratory according to a previously reported method. VAS and VAO structures were elucidated by comparing their spectral data (UV, MS, ^1H-NMR, and ^13C NMR) with the references. […] AChE from Electrophorus electricus, BChE from equine serum, acetylcholine (ACh) chloride, butyrocholine (BCh) chloride, choline (Ch) chloride, chlormequat (internal standard, IS), glucose 6-phosphate, glucose-6-phosphate dehydrogenase, NADP, UDPGA, alamethicin, fetal bovine serum, dexamethasone, and insulin were purchased from Sigma Aldrich Co. (St. Louis, MO, USA). Tris base and MgCl2 were purchased from Majorbio Biotech Corp., Ltd. (Shanghai, China). MCI Gel CHP 20P was purchased from Mitsubishi Chemical Crop. (Tokyo, Japan). Silica Gel C18 (MB 100-40/75) was purchased from Fuji Silysia Chemical Ltd. (Kasugai, Japan). Acetonitrile and methanol of HPLC grade were purchased from Fisher Scientific Co. (Santa Clara, USA). HPLC grade 96% formic acid was purchased from Tedia Co. (Fairfield, USA). Water was produced with a Milli-Q Academic System (Millipore, Billerica, MA). All other reagents and solvents were either analytical or HPLC grade.
(§1) The AChE and BChE inhibitory activities of VAS and its main metabolites, namely, VAO, VASL, VAOL, VAS-3-S, VAO-3-S, and VAS-3-G, were evaluated based on our previously established method. A 50 μL incubation system composed of 10 μL of the test compound solution (all the test compound solutions were diluted to a series of concentrations with buffer solution before each experiment) and 40 μL of the enzyme solutions (with final concentrations: 0.0035 unit/mL for AChE, or 0.008 unit/mL for BChE) were mixed and pre-incubated for 15 min. Up to 50 μL of substrate solution (final concentration of 5.505 μM for ACh, or 7.152 μM for BCh) was added into the mixture, which was then incubated for 20 min at 25°C. The reaction was terminated by addition of 300 μL of ice acetonitrile solution (0°C), which was immediately dissolved with 1.899 μM IS (chlormequat). The solution was then centrifuged (15,000 × g, 10 min), and the supernatant was used for analysis by UPLC-ESI MS/MS. The inhibitive IC50 values of VAS and its key metabolites on AChE and BChE were calculated using the Prism software (GraphPad Software Inc., San Diego, CA).

BChE from equine serum [2] = molecular target: T2, BChE from equine serum (Equus caballus, UniProt P81908); assay: In vitro anticholinesterase assay (UPLC-ESI MS/MS), BChE; format: biochemical; conditions: for IC50: means ± SD of three replicate determinations; for fold reduction of BChE inhibitory activity: VAO vs VAS, VAO-3-S vs VAS-3-S, VAS-3-G vs VAS
T2 construct: BChE from equine serum; purchased Sigma Aldrich Co. (St. Louis, MO, USA); host or cells: equine serum
Protocol: VAS and VAO were isolated from P. harmala in our laboratory according to a previously reported method. VAS and VAO structures were elucidated by comparing their spectral data (UV, MS, ^1H-NMR, and ^13C NMR) with the references. The purities of VAS and VAO were determined to be more than 98% through normalization of the peak areas detected by HPLC-DAD, UPLC-MS/MS, ^1H-NMR, and ^13C NMR. AChE from Electrophorus electricus, BChE from equine serum, acetylcholine (ACh) chloride, butyrocholine (BCh) chloride, choline (Ch) chloride, chlormequat (internal standard, IS), glucose 6-phosphate, glucose-6-phosphate dehydrogenase, NADP, UDPGA, alamethicin, fetal bovine serum, dexamethasone, and insulin were purchased from Sigma Aldrich Co. (St. Louis, MO, USA). Tris base and MgCl2 were purchased from Majorbio Biotech Corp., Ltd. (Shanghai, China). MCI Gel CHP 20P was purchased from Mitsubishi Chemical Crop. (Tokyo, Japan). Silica Gel C18 (MB 100-40/75) was purchased from Fuji Silysia Chemical Ltd. (Kasugai, Japan). Acetonitrile and methanol of HPLC grade were purchased from Fisher Scientific Co. (Santa Clara, USA). HPLC grade 96% formic acid was purchased from Tedia Co. (Fairfield, USA). Water was produced with a Milli-Q Academic System (Millipore, Billerica, MA). All other reagents and solvents were either analytical or HPLC grade.
as §1

[3] = Bioavailability studies of VAS (unpublished data of the laboratory); conditions: in vivo, no published data; for half-life: read-out: elimination half-life (converted)
Text: (§2) It illustrated that VAS is safe as a potential candidate drug.

[4] = LD50 determination of VAS (unpublished data); conditions: in vivo; no published data
Text: as §2

rats = assay: Observation of side effects during 21-day oral dosing for urine collection; format: in vivo, rat; conditions: 15 rats, oral 100 mg/kg once a day for 21 consecutive days
Protocol: The urine samples used for isolating and purifying the metabolites were collected from 15 rats that were given VAS orally once a day, over 21 consecutive days, at dose of 100 mg/kg body weight. In total, approximately 5 L of urine was collected and centrifuged at 4000 × g for 15 min. The supernatant was then stored at −20°C until use. At the end of experiment, all rats were sacrificed by CO2 asphyxiation.
as §2

[5] = molecular target: T1, AChE from Electrophorus electricus; set-up: method as in PMID 23270245, doi:10.1155/2013/71723, PMID 24631841; conditions: previous studies; ref [3], [6]–[8]; read-out: IC50 against AChE; cited from earlier work
BChE from equine serum [6] = molecular target: T2, BChE from equine serum; set-up: method as in PMID 23270245, doi:10.1155/2013/71723, PMID 24631841; conditions: previous studies; ref [3], [6]–[8]; read-out: IC50 against BChE; cited from earlier work
[7] = Metabolite detection in rat bio-specimens (urine, feces, bile, plasma) by UPLC/ESI-QTOF-MS after oral VAS; format: in vivo
Text: Bio-specimens (urine, feces, bile and plasma) collected form 18 male rats were used to study the VAS metabolism in vivo. […] Baseline urine and fecal samples were collected before oral administration of VAS. After intraperitoneal injection of urethane (1.4 g/kg), abdominal incision was made for bile sampling and the common bile duct was cannulated with a Closed IV Catheter System (ID = 0.07 cm, Becton Dickinson, USA) to collect bile samples. […] Baseline rat bile was collected before oral administration of VAS. All the samples were stored at −20°C until analysis. Blood was collected from the angular vein of the last six male rats at 0.25, 0.5, 1, and 2 h after oral administration of VAS 50 mg/kg VAS. Plasma was obtained by centrifuging blood at 4000 × g for 10 min, and then stored at −20°C until use.
Up to 1 mL of urine was thoroughly mixed with same volume of acetonitrile, and then centrifuged at 15,000 × g for 10 min. The supernatant was evaporated until dry under nitrogen at 37°C. The residue of the supernatant was re-dissolved in 200 μL of 5% methanol, and then centrifuged at 15,000 × g for 10 min. The supernatant was injected into the chromatographic systems for separation and identification of metabolites.
The supernatant was then evaporated to dryness by a gentle stream of nitrogen at 37°C. The residue was dissolved by 200 μL of 5% methanol and centrifuged at 15,000 × g for 10 min prior to injection.
Plasma or bile (400 μL) was mixed and vortexed with 1200 μL of acetonitrile for […], then centrifuged at 15,000 × g for 10 min at 4°C. Afterward, the supernatant was evaporated until dry by a gentle stream of nitrogen at 37°C. The residue was dissolved by 80 μL of 5% methanol and centrifuged at 15,000 × g for 10 min. The supernatants (5 μL) were used in the UPLC/ESI-QTOF-MS analysis.
Chromatographic analysis was performed on an HSS T3 column (100 mm × 2.1 mm, 1.8 μm particle size; Waters Corporation, Milford, MA, USA) for separation of samples using an ACQUITY UPLC system equipped with a binary solvent manager system and an autosampler. […] The flow rate was 0.4 mL/min. The column and sample-tray temperatures were maintained at 40°C and 10°C, respectively.
A Waters ACQUITY Synapt G2 Q/TOF tandem mass spectrometer was combined with the UPLC system through an electrospray ionization (ESI) interface and controlled by Masslynx software (version 4.1, Waters Corp., Manchester, UK). The positive ionization mode of ESI source was operated. The optimized conditions for maximum detection of metabolites were as follows: source temperature, 120°C; desolvation temperature, 400°C; capillary voltage, 3.0 kV; sample cone, 30 V and extraction cone, 4.0 V. The cone and desolvation gas (N2) flows were set at 75 and 800 (L/h), respectively. […] Data were collected in centroid mode and the MS^E approach using a dynamic ramp of collision energy was carried out in two scan functions. Function 1 (low energy): mass scan ranged from 100–1000,with 0.2 s scan time and 0.05 s inter-scan delay; Function 2 (high energy): mass scan ranged from 100–1000 with 0.2 s scan time, 0.05 s inter-scan delay, and collision energy ramp of 10–40 V. MS/MS analysis were operated for major metabolites to obtain additional information from product ions since the same collision energy of MS^E in Function 2 could not match each precursor ion.

[8] = Stability of glucuronide metabolites in collected urine; format: physicochemical; conditions: room temperature for an excessively long time, pH > 10
[9] = set-up: method as in ref [36] = [36]; 36 Swamy G , Ravikumar K . Crystal and molecular structures of quinazolines: A ring conformational study . J Chem Crystallogr . 2005; 35 : 183 – 189 .; conditions: in vitro and in vivo; ref [36]; cited from earlier work
[10] = set-up: method as in ref [37] = [37]; 37 Bhide M , Naik P , Ghooi R . Comparative studies on the pharmacological evaluation of vasicine and vasicinone . Bull Haffkin Inst . 1976; 4 : 45 – 50 .; conditions: comparable to sodium cromoglycate; ref [37]; cited from earlier work

T1 sequence (O42275 24-633): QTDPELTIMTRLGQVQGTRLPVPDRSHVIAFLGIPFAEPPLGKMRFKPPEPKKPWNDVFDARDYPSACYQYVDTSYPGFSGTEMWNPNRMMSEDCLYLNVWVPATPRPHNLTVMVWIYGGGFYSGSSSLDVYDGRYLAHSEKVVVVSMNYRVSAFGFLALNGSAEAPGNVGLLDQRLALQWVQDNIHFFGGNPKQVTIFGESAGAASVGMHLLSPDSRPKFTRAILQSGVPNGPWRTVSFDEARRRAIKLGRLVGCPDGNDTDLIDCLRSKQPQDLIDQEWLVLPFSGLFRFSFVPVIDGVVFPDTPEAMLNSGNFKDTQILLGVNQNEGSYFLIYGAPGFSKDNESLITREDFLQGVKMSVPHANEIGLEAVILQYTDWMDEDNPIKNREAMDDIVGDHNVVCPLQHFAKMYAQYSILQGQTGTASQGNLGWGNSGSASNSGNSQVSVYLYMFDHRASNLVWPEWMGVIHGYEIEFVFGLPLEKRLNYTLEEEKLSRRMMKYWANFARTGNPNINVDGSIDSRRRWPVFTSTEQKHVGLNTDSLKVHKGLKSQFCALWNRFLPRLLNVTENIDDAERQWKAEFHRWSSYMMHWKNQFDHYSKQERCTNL
T2 sequence (P81908 whole entry): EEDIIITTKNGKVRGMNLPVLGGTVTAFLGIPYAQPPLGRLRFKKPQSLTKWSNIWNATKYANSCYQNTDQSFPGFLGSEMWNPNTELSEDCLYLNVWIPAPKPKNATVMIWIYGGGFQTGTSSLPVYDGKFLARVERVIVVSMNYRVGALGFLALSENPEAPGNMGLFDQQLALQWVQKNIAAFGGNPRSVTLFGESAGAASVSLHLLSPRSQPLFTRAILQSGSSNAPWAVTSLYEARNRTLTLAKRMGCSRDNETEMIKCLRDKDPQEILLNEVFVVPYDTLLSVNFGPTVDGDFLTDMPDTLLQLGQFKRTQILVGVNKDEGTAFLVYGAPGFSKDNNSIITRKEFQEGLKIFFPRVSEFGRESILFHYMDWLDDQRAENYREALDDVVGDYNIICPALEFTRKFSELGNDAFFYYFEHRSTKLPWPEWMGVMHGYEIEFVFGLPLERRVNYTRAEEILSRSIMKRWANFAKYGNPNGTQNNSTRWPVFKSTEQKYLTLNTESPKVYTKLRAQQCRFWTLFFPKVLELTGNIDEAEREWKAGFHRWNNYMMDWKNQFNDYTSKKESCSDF

Row | Structure (SMILES) | SI (AChE selectivity index, IC50 BChE/IC50 AChE) [1] | IC50 [1] [µM] | IC50 (BChE from equine serum [2]) [µM] | abundance in plasma [7] | fold reduction of BChE inhibitory activity (BChE from equine serum [2]) [fold] | other results
1 | O[C@H]1CCN2Cc3ccccc3N=C12 [Metabolite M0, Vasicine] | 0.030 | 3.38 ± 0.03 | 0.101 ± 0.003 | – | – | half-life ([3]; after intravenous administration): ~5 h; bioavailability ([3]; after oral administration, read-out: absolute bioavailability): ~50%; half-life ([3]; after oral administration): ~1.5 h; LD50 [4]: 308 mg/kg; observable side effects (rats): no any observable side effects; IC50 [5]: 3.24 ± 0.08 µM; IC50 (BChE from equine serum [6]): 0.1 µM
2 | O=S(=O)(O)OC1CCN2Cc3ccccc3N=C12 (stereo not shown) [Metabolite M15, 1,2,3,9-tetrahydropyrrolo [2,1-b] quinazolin-3-yl hydrogen sulfate] | 0.198 | 49.6 ± 2.77 | 9.82 ± 0.925 | high abundance | – | –
3 | OC1CCN2C1=Nc1ccccc1C2O (stereo not shown) [Metabolite M3-3, 1,2,3,9-tetrahydropyrrolo [2,1-b] quinazolin-3,9-diol] | – | – | – | high abundance | – | –
4 | O=c1c2ccccc2nc2n1CCC2OS(=O)(=O)O (stereo not shown) [Metabolite M16, 9-oxo-1,2,3,9-tetrahydropyrrolo [2,1-b] quinazolin-3-yl hydrogen sulfate] | 0.069 | 395 ± 19.5 | 27.3 ± 5.03 | high abundance | 2.8 | fold reduction of AChE inhibitory activity [1]: 8.0 fold
5 | O=C(O)[C@H]1O[C@@H](O[C@H]2CCn3c2nc2ccccc2c3=O)[C@H](O)[C@@H](O)[C@@H]1O [Metabolite M21-2, vasicinone-3-O-glucuronide] | – | – | – | high abundance | – | stability in urine sample [8]: hydrolyzed
6 | O=c1c2ccccc2nc2n1CCC2O (stereo not shown) [Metabolite M1, vasicinone] | 0.133 | 76.6 ± 8.46 | 10.2 ± 2.08 | high abundance | 101.0 | fold reduction of AChE inhibitory activity [1]: 22.7 fold; bronchodilatory effects compared with VAS [9]: more bronchodilatory effects than parent VAS; anti-asthmatic activity compared with VAS [10]: more potent anti-asthmatic activity than VAS
7 | Oc1ccc2c(c1)CN1CCC(O)C1=N2 (stereo not shown) [Metabolite M3-2, vasicinol] | 0.930 | 2.65 ± 0.432 | 2.46 ± 0.224 | – | – | –
8 | O=C(O)C1OC(OC2CCN3Cc4ccccc4N=C23)C(O)C(O)C1O [Metabolite M20-2, 1,2,3,9-tetrahydropyrrolo [2,1-b] quinazolin-3-β-D-glucuronide] | 4.998 | 20.8 ± 0.329 | 104 ± 15.5 | high abundance | 1027.7 | stability in urine sample [8]: hydrolyzed
9 | O=c1c2cc(O)ccc2nc2n1CCC2O (stereo not shown) [Metabolite M5-2, vasicinolone] | 1.545 | 46.9 ± 2.84 | 72.4 ± 8.63 | – | – | –
